Results taken from ChEMBL document CHEMBL5376020, “Synthesis and evaluation of WK-X-34 derivatives as P-glycoprotein (P-gp/ABCB1) inhibitors for reversing multidrug resistance” (RSC Med Chem, 2024).
Activity calls are given as the source filed them. No cut-off for these calls is given here.

How the values were obtained:
SW620/AD300 [1] = assay: Reversal of doxorubicin-induced multidrug resistance in human SW620/AD300 cells measured after 48 hrs by CCK-8 method; type: functional, cell-based; conditions: SW620/AD300, 48 h
SW-620 [2] = assay: Reversal of doxorubicin-induced multidrug resistance in human SW620 cells measured after 48 hrs by CCK-8 method; type: functional, cell-based; conditions: SW-620, 48 h
SW620/AD300 [3] = assay: Reversal fold, ratio of Doxorubicin IC50 to test compound IC50 for reversal of doxorubicin-induced multi-drug resistance in human SW620/AD300 cells measured after 48 hrs by CCK-8 method; type: functional
[4] = Octanol/water partition coefficient, log P of the compound; type: physicochemical
SW-620 [5] = assay: Reversal fold, ratio of Doxorubicin IC50 to test compound IC50 for reversal of doxorubicin-induced multi-drug resistance in human SW620 cells measured after 48 hrs by CCK-8 method; type: functional
SW620/AD300 [6] = assay: Cytotoxicity against human overexpressing P-gp SW620/AD300 cells assessed as cell mortality rate at 5 uM measured after 48 hrs by CCK-8 method relative to control; type: functional
SW-620 [7] = assay: Cytotoxicity against human SW620 cells assessed as cell mortality rate at 5 uM measured after 48 hrs by CCK-8 method relative to control; type: functional
SW620/AD300 [8] = assay: Downregulation of P-gp expression level in human SW620/AD300 cells at 2 to 5 uM measured after 24 hrs by qPCR analysis; type: functional, cell-based; conditions: dose 2-5 µM
SW620/AD300 [9] = assay: Induction of doxorubicin induced apoptosis in human SW620/AD300 cells assessed as late apoptotic cells at 5 uM incubated for 48 hrs in presence of doxorubicin by annexin V-FITC and PI staining based flow cytometry analysis (reference value: 2.07%); type: functional
SW620/AD300 [10] = assay: Induction of doxorubicin induced apoptosis in human SW620/AD300 cells assessed as viable cells at 2.5 uM incubated for 48 hrs in presence of doxorubicin by annexin V-FITC and PI staining based flow cytometry analysis (reference value: 92.8%); type: functional; conditions: read-out: Activity
SW620/AD300 [11] = assay: Induction of doxorubicin induced apoptosis in human SW620/AD300 cells assessed as viable cells at 5 uM incubated for 48 hrs in presence of doxorubicin by annexin V-FITC and PI staining based flow cytometry analysis (reference value: 92.8%); type: functional; conditions: read-out: Activity
[12] = biological target: ATP-dependent translocase ABCB1 (Homo sapiens, UniProt P08183); assay: Inhibition of P-gp efflux in human SW620/AD300 cells assessed as increase in accumulation of Rh123 by measuring fluorescence intensity at 5.0 uM incubated for 4 hrs followed by Rh123 addition measured after 30 mins by flow cytometric analysis; type: cell-based; conditions: sw620/ad300, 4.5 h
Sequence of ATP-dependent translocase ABCB1 (P08183 whole entry): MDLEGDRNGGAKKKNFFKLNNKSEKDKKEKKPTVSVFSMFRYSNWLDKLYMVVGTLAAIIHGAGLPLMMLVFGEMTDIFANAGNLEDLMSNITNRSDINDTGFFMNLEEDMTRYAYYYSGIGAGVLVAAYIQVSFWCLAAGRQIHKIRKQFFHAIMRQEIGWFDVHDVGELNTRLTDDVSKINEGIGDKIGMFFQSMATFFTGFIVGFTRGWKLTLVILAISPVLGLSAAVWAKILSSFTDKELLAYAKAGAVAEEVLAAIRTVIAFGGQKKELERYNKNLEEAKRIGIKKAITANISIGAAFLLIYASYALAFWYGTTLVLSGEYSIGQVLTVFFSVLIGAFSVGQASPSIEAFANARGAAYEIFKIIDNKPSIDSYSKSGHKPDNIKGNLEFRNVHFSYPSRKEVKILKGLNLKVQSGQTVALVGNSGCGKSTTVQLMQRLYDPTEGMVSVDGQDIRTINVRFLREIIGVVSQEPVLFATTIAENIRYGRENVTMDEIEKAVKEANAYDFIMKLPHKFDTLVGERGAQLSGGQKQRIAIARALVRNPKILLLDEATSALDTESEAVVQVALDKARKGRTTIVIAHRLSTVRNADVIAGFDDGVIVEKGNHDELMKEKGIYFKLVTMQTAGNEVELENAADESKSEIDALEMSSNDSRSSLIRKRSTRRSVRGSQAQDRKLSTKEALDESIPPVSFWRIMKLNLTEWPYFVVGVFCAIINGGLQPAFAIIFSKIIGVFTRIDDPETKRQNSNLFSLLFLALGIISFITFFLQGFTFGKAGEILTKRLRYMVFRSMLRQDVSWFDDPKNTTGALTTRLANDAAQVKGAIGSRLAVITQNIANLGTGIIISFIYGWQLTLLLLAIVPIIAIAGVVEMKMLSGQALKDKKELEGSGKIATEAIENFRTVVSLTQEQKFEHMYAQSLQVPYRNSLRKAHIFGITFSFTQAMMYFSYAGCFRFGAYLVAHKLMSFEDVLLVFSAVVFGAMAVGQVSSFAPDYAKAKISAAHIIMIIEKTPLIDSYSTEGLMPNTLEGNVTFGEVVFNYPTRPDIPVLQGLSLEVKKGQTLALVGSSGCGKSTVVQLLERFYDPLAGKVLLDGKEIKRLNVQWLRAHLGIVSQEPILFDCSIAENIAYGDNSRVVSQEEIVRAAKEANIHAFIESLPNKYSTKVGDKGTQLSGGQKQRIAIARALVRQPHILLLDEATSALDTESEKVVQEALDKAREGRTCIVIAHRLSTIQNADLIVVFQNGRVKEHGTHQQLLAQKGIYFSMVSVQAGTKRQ

SW620/AD300 [13] = assay: Downregulation of P-gp expression level in human SW620/AD300 cells at 5 to 10 uM measured after 24 hrs by Western blot analysis; type: functional, cell-based; conditions: dose 5-10 µM
SW620/AD300 [14] = assay: Induction of doxorubicin induced apoptosis in human SW620/AD300 cells assessed as early apoptotic cells at 2.5 uM incubated for 48 hrs in presence of doxorubicin by annexin V-FITC and PI staining based flow cytometry analysis (reference value: 4.55%); type: functional
SW620/AD300 [15] = assay: Induction of doxorubicin induced apoptosis in human SW620/AD300 cells assessed as necrotic cells at 5 uM incubated for 48 hrs in presence of doxorubicin by annexin V-FITC and PI staining based flow cytometry analysis (reference value: 0.59%); type: functional
SW620/AD300 [16] = assay: Induction of doxorubicin induced apoptosis in human SW620/AD300 cells assessed as early apoptotic cells at 5 uM incubated for 48 hrs in presence of doxorubicin by annexin V-FITC and PI staining based flow cytometry analysis (reference value: 4.55%); type: functional
SW620/AD300 [17] = assay: Downregulation of P-gp expression level in human SW620/AD300 cells at upto 50 uM measured after 24 hrs by Western blot analysis; type: functional, cell-based
SW620/AD300 [18] = assay: Induction of doxorubicin induced apoptosis in human SW620/AD300 cells assessed as necrotic cells at 2.5 uM incubated for 48 hrs in presence of doxorubicin by annexin V-FITC and PI staining based flow cytometry analysis (reference value: 0.59%); type: functional
SW620/AD300 [19] = assay: Induction of doxorubicin induced apoptosis in human SW620/AD300 cells assessed as late apoptotic cells at 2.5 uM incubated for 48 hrs in presence of doxorubicin by annexin V-FITC and PI staining based flow cytometry analysis (reference value: 2.07%); type: functional

Structure (SMILES) | IC50 (SW620/AD300 [1]) | IC50 (SW-620 [2]) | Ratio IC50 (SW620/AD300 [3]) | logP [4] | Ratio IC50 (SW-620 [5]) | mortality at 5 µM (SW620/AD300 [6]) | mortality at 5 µM (SW-620 [7]) | Activity (SW620/AD300 [8]) | Activity (SW620/AD300 [9]) | viability at 2.5 µM (SW620/AD300 [10]) | viability at 5 µM (SW620/AD300 [11]) | inhibition (INH) [12] | Activity (SW620/AD300 [13]) | Activity (SW620/AD300 [14]) | Activity (SW620/AD300 [15]) | Activity (SW620/AD300 [16]) | Activity (SW620/AD300 [17]) | Activity (SW620/AD300 [18]) | Activity (SW620/AD300 [19])
COc1cc2c(cc1OC)CN(CCc1ccc(NC(=O)c3ccccc3NC(=O)c3ccc(N)cc3)cc1)CC2 | 663 nM | 173 nM | 15.9 | 5.23 | 1.5 | – | – | – | – | – | – | – | – | – | – | – | – | – | –
COC(=O)c1ccc(C(=O)Nc2ccccc2C(=O)Nc2ccc(CCN3CCc4cc(OC)c(OC)cc4C3)cc2)cc1 | 1010 nM | 136 nM | 10.4 | 5.77 | 1.9 | – | – | – | – | – | – | – | – | – | – | – | – | – | –
COc1cc2c(cc1OC)CN(CCc1ccc(NC(=O)c3ccccc3NC(=O)c3ccc(NC(=O)CC45CC6CC(CC(C6)C4)C5)cc3)cc1)CC2 | 498 nM | 489 nM | 21.1 | 8.48 | 0.5 | < 6% | < 6% | – | – | – | – | – | – | – | – | – | – | – | –
COc1cc2c(cc1OC)CN(CCc1ccc(NC(=O)c3ccccc3NC(=O)C34CC5CC(CC(C5)C3)C4)cc1)CC2 | 671 nM | 144 nM | 15.7 | 6.83 | 1.8 | < 2% | < 2% | inactive | 4.45% | 76.3% | 59.2% | Active | inactive | 22.7% | 0.29% | 36.1% | Active | 0.08% | 0.96%
COc1ccc(CCN(C)CCCC(C#N)(c2ccc(OC)c(OC)c2)C(C)C)cc1OC (stereo not given) [VERAPAMIL] | – | 142 nM | – | – | – | – | – | – | – | – | – | – | – | – | – | – | – | – | –
COc1cc2c(cc1OC)CN(CCc1ccc(NC(=O)c3ccccc3NC(=O)c3ccc(C(=O)O)cc3)cc1)CC2 | 7540 nM | 376 nM | 1.4 | 3.16 | 0.7 | – | – | – | – | – | – | – | – | – | – | – | – | – | –
COc1cc2c(cc1OC)CN(CCc1ccc(NC(=O)c3ccccc3NC(=O)c3ccccc3N)cc1)CC2 | 719 nM | 229 nM | 14.6 | 5.78 | 1.1 | – | – | – | – | – | – | – | – | – | – | – | – | – | –
COc1cc2c(cc1OC)CN(CCc1ccc(NC(=O)c3ccccc3NC(=O)c3ccc(C(=O)NCCNC(=O)CC45CC6CC(CC(C6)C4)C5)cc3)cc1)CC2 | 807 nM | 138 nM | 13 | 7.9 | 1.8 | < 6% | < 6% | – | – | – | – | – | – | – | – | – | – | – | –
COc1cc2c(cc1OC)CN(CCc1ccc(NC(=O)c3ccccc3NC(=O)CCNC(=O)CC34CC5CC(CC(C5)C3)C4)cc1)CC2 | 379 nM | 342 nM | 27.7 | 6.89 | 0.7 | < 6% | < 6% | – | – | – | – | – | – | – | – | – | – | – | –
COc1ccc(C(=O)Nc2ccccc2C(=O)Nc2ccc(CCN3CCc4cc(OC)c(OC)cc4C3)cc2)cc1OC | 223 nM | 63 nM | 45.9 | 5.85 | 4 | 9% | 9% | – | 3.62% | – | 57.3% | Active | – | – | 0.56% | 38.5% | – | – | –
COc1cccc2c1C(=O)c1c(O)c3c(c(O)c1C2=O)C[C@@](O)(C(=O)CO)C[C@@H]3O[C@H]1C[C@H](N)[C@H](O)[C@H](C)O1 [DOXORUBICIN] | 10500 nM | 256 nM | 1 | – | 1 | – | – | – | – | – | – | – | – | – | – | – | – | – | –
COc1cc2c(cc1OC)CN(CCc1ccc(NC(=O)c3ccccc3NC(=O)CC34CC5CC(CC(C5)C3)C4)cc1)CC2 | 205 nM | 284 nM | 51.4 | 7.65 | 0.9 | < 2% | < 2% | inactive | 3.93% | 78.9% | 70.2% | Active | inactive | 17.7% | 1.13% | 24.7% | inactive | 0.29% | 3.15%
COc1cc2c(cc1OC)CN(CCc1ccc(NC(=O)c3ccccc3NC(=O)c3ccc(C(=O)N4CCN(C(=O)CC56CC7CC(CC(C7)C5)C6)CC4)cc3)cc1)CC2 | 134 nM | 137 nM | 78.6 | 8.04 | 1.9 | < 2% | < 2% | inactive | 5.15% | 47.8% | 42.1% | Active | inactive | 50.8% | 1.17% | 52.1% | inactive | 0.22% | 1.16%
